One data set relates to Escherichia coli. As to the kind of experiment: Antibacterial activity against Escherichia coli ATCC 25922 by microbroth dilution assay. The data set is classed as functional. Background: Broth dilution looks for growth in wells or tubes with falling amounts of substance.
The nature of data set [1]: Hemolytic activity in rabbit erythrocytes. The data set is classed as toxicity, cell-based, Oryctolagus cuniculus, Erythrocyte.
The subject of data set [2] is Staphylococcus aureus. As to the kind of experiment: Antibacterial activity against Staphylococcus aureus ATCC 29213 by microbroth dilution assay. The class given is functional.
Data set [3] deals with Staphylococcus aureus. The experiment in a line: Antibacterial activity against methicillin resistant Staphylococcus aureus N315 by microbroth dilution assay. The data set is classed as functional.
Data set [4] concerns Staphylococcus aureus. The experiment in a line: Antibacterial activity against methicillin resistant Staphylococcus aureus NCTC 10442 by microbroth dilution assay. The class given is functional.

Results on 16 compounds are retold here after ChEMBL document CHEMBL5634090, “Design of phenothiazine-based cationic amphiphilic derivatives incorporating arginine residues: Potential membrane-active broad-spectrum antimicrobials combating pathogenic bacteria in vitro and in vivo” (Eur J Med Chem, 2023).

SMILES strings stand for the structures. Values after ≈ are worked out from the molar mass of the structure shown.

One may read the MIC as the smallest concentration in the dilution series that meets the test's criterion for growth inhibition. Low readings indicate greater potency, high ones weaker potency. As usually defined, the HC50 is the concentration that lyses half of the red blood cells. A high value points to weaker haemolysis. On to `CCCCCOc1ccc2c(c1)N(CCCCCCCCN)c1ccccc1S2`, for which the MIC against Escherichia coli was over 50 µg/mL; against Staphylococcus aureus [2] it was 3.12 µg/mL (≈ 7.57 µM); with Staphylococcus aureus [3], 3.12 µg/mL (≈ 7.57 µM); with Staphylococcus aureus [4], 3.12 µg/mL (≈ 7.57 µM). In addition, in data set [1], the HC50 is over 200 µg/mL.
For the compound `CCCCCCCCCOc1ccc2c(c1)Nc1ccccc1S2`, the MIC against Escherichia coli, against Staphylococcus aureus [2], in the data set with Staphylococcus aureus [3] and in the data set on Staphylococcus aureus [4] was over 50 µg/mL throughout. In data set [1], this compound had an HC50 of over 200 µg/mL.
On to `COc1ccc2c(c1)Nc1ccccc1S2`, for which the MIC with Escherichia coli, against Staphylococcus aureus [2], with Staphylococcus aureus [3] and with Staphylococcus aureus [4] was over 50 µg/mL throughout. Besides, the HC50 in data set [1] is over 200 µg/mL.
Regarding `CCCCCCCN1c2ccccc2Sc2ccc(OCC(=O)N[C@@H](CCCNC(=N)N)C(=O)N[C@@H](CCCNC(=N)N)C(=O)N[C@@H](CCCNC(=N)N)C(=O)OC)cc21`, the MIC against Escherichia coli worked out at 12.5 µg/mL (≈ 14.6 µM); against Staphylococcus aureus [2], 0.78 µg/mL (≈ 0.913 µM); in the data set with Staphylococcus aureus [3], 0.78 µg/mL (≈ 0.913 µM); against Staphylococcus aureus [4] it was 0.78 µg/mL (≈ 0.913 µM). The compound also returned an HC50 in data set [1] of over 200 µg/mL.
As to `CC(C)=CCOc1ccc2c(c1)N(CCCCNC(=N)N)c1ccccc1S2`, the MIC is over 50 µg/mL in the data set on Escherichia coli, 1.56 µg/mL (≈ 3.93 µM) against Staphylococcus aureus [2], 0.78 µg/mL (≈ 1.97 µM) in the data set with Staphylococcus aureus [3] and 0.78 µg/mL (≈ 1.97 µM) in the data set with Staphylococcus aureus [4]. Also, in data set [1], the 50% haemolytic concentration (HC50) was over 200 µg/mL.
In the case of `CCCCCOc1ccc2c(c1)N(CCCNC(=N)N)c1ccccc1S2`, the MIC was over 50 µg/mL in the data set with Escherichia coli, 1.56 µg/mL (≈ 4.06 µM) in the data set on Staphylococcus aureus [2], 1.56 µg/mL (≈ 4.06 µM) in the data set with Staphylococcus aureus [3] and 0.78 µg/mL (≈ 2.03 µM) against Staphylococcus aureus [4]. The compound further displayed an HC50 in data set [1] of over 200 µg/mL.
Consider `CCCCCOc1ccc2c(c1)N(CCCCCCN)c1ccccc1S2`, for which the MIC with Escherichia coli is over 50 µg/mL; in the data set on Staphylococcus aureus [2] it was 3.12 µg/mL (≈ 8.13 µM); against Staphylococcus aureus [3], 1.56 µg/mL (≈ 4.06 µM); in the data set with Staphylococcus aureus [4], 1.56 µg/mL (≈ 4.06 µM). For the same compound, the HC50 in data set [1] was over 200 µg/mL.
`CCCCCOc1ccc2c(c1)N(CCCCN)c1ccccc1S2`: the MIC against Escherichia coli is 25 µg/mL (≈ 70.1 µM); against Staphylococcus aureus [2], 3.12 µg/mL (≈ 8.76 µM); in the data set with Staphylococcus aureus [3], 3.12 µg/mL (≈ 8.76 µM); in the data set on Staphylococcus aureus [4], 3.12 µg/mL (≈ 8.76 µM). Moreover, the HC50 in data set [1] was over 200 µg/mL.
For `CC1(C)S[C@@H]2[C@H](NC(=O)[C@H](N)c3ccc(O)cc3)C(=O)N2[C@H]1C(=O)O` [AMOXICILLIN], inhibition of growth in the data set with Escherichia coli (MIC) required 6.25 µg/mL (≈ 17.1 µM).
On to `CCCCCCCN1c2ccccc2Sc2ccc(OCC(=O)OCC)cc21`, for which the MIC against Escherichia coli, with Staphylococcus aureus [2], against Staphylococcus aureus [3] and in the data set on Staphylococcus aureus [4] was over 50 µg/mL in each case. In data set [1], this compound displayed an HC50 of over 200 µg/mL.
As for `CCCCCOc1ccc2c(c1)N(CCCN)c1ccccc1S2`, the MIC against Escherichia coli worked out at 25 µg/mL (≈ 73 µM); with Staphylococcus aureus [2] it was 3.12 µg/mL (≈ 9.12 µM); in the data set with Staphylococcus aureus [3], 3.12 µg/mL (≈ 9.12 µM); against Staphylococcus aureus [4] it was 3.12 µg/mL (≈ 9.12 µM). Moreover, in data set [1], the HC50 is over 200 µg/mL.
Take `CCCCCCCOc1ccc2c(c1)N(CCCCN)c1ccccc1S2`: the MIC against Escherichia coli is over 50 µg/mL; in the data set on Staphylococcus aureus [2], 3.12 µg/mL (≈ 8.13 µM); against Staphylococcus aureus [3] it was 1.56 µg/mL (≈ 4.06 µM); against Staphylococcus aureus [4] it was 3.12 µg/mL (≈ 8.13 µM). The compound also gave an HC50 in data set [1] of over 200 µg/mL.
On to `CCCCCCCCCOc1ccc2c(c1)N(CCCCNC(=N)N)c1ccccc1S2`, for which the MIC was over 50 µg/mL in the data set on Escherichia coli, 3.12 µg/mL (≈ 6.87 µM) in the data set on Staphylococcus aureus [2], 1.56 µg/mL (≈ 3.43 µM) in the data set on Staphylococcus aureus [3] and 1.56 µg/mL (≈ 3.43 µM) against Staphylococcus aureus [4]. The same compound registered an HC50 in data set [1] of over 200 µg/mL.
Turning to `CCCCCCCCCOc1ccc2c(c1)N(CCCCN)c1ccccc1S2`, the MIC against Escherichia coli is over 50 µg/mL; with Staphylococcus aureus [2], 3.12 µg/mL (≈ 7.57 µM); with Staphylococcus aureus [3], 3.12 µg/mL (≈ 7.57 µM); in the data set on Staphylococcus aureus [4] it was 3.12 µg/mL (≈ 7.57 µM). For the same compound, the HC50 in data set [1] is over 200 µg/mL.
Regarding `CCCCCOc1ccc2c(c1)N(CCCCN(CC)CC)c1ccccc1S2`, the MIC with Escherichia coli is over 50 µg/mL; with Staphylococcus aureus [2] it was 6.25 µg/mL (≈ 15.1 µM); in the data set with Staphylococcus aureus [3], 3.12 µg/mL (≈ 7.57 µM); in the data set with Staphylococcus aureus [4], 3.12 µg/mL (≈ 7.57 µM). The same compound had an HC50 in data set [1] of over 200 µg/mL.
In the case of `CCOC(=O)COc1ccc2c(c1)Nc1ccccc1S2`, the MIC against Escherichia coli, with Staphylococcus aureus [2], with Staphylococcus aureus [3] and against Staphylococcus aureus [4] was over 50 µg/mL in each case. This compound yielded an HC50 in data set [1] of over 200 µg/mL.
